For data set [1], the target named is T1, Na^+ /H^+ exchange transport (rat platelets) (Rattus norvegicus, UniProt P26431).
T1 construct: the thus collected supernatant was used as platelet rich plasma; endogenous in cells; host or cells: platelets (platelet rich plasma) of Wistar rat
Briefly: Inhibition studies on Na^+ /H^+ exchange transport: swelling of rat platelets induced by sodium propionate. The following applies: rat platelet swelling, sodium propionate buffer pH 6.7, 20 seconds; 300 μM amiloride = 100% inhibition; read-out: IC5O value (inhibitory actions of test compounds on Na^+ /H^+ exchange transport). Type of data set: cell-based, rat (Wistar). The method, then: The Na^+ /H^+ exchange transport inhibitory activity was measured in accordance with the method of Scholz et al. [Br. J. Pharmacol., 109, 562 (1993)], using the swelling of rat platelets induced by sodium propionate as an index.
Under ether anesthesia, blood sample (8 ml) was collected from the abdominal aorta of Wistar rat and mixed with 1 ml of acid citrate dextrose as an anticoagulant. The resulting mixture was immediately centrifuged at 90×g for 10 minutes, and the thus collected supernatant was used as platelet rich plasma. Next, the thus prepared platelet rich plasma (10×10^6 platelets/50 μl) was added to 250 μl of 140 mM sodium propionate buffer (pH 6.7, 1% dimethyl sulfoxide in final concentration) containing each test compound dissolved in dimethyl sulfoxide, and the decrease in absorbance caused by the swelling of platelets was periodically measured using Hema-Tracer (manufactured by Nk).
The decreased absorbance ratio 20 seconds after the addition of platelet rich plasma was measured as the Na^+ /H^+ exchange activity, and the inhibitory activity of each test compound was expressed as relative activity when the action of 300 μM amiloride was defined as 100% inhibition.
In this case, each test result was evaluated from 50% inhibition concentration (IC50 value) by using probit methods.

For data set [2] the following is noted: background statement; cited from earlier work.
Data set [3] concerns Na^+ /H^+ exchange transport. The following applies: background statement, Circulation, 79, 1257 (1989); cited from earlier work.
Data set [4] relates to male SD rats. Further details: species or system rat (SD). The following applies: rat, in vivo, iv, 100 mg/kg.
Data set [5] relates to male SD rats. Further details: species or system rat (SD). The following applies: rat, in vivo, iv, 10 mg/kg.

Each structure is given as a SMILES string. Where a name gives a salt, the structure may show the parent alone. Read-outs that look alike come from different tables or passages of the source.

T1 sequence (P26431 whole entry): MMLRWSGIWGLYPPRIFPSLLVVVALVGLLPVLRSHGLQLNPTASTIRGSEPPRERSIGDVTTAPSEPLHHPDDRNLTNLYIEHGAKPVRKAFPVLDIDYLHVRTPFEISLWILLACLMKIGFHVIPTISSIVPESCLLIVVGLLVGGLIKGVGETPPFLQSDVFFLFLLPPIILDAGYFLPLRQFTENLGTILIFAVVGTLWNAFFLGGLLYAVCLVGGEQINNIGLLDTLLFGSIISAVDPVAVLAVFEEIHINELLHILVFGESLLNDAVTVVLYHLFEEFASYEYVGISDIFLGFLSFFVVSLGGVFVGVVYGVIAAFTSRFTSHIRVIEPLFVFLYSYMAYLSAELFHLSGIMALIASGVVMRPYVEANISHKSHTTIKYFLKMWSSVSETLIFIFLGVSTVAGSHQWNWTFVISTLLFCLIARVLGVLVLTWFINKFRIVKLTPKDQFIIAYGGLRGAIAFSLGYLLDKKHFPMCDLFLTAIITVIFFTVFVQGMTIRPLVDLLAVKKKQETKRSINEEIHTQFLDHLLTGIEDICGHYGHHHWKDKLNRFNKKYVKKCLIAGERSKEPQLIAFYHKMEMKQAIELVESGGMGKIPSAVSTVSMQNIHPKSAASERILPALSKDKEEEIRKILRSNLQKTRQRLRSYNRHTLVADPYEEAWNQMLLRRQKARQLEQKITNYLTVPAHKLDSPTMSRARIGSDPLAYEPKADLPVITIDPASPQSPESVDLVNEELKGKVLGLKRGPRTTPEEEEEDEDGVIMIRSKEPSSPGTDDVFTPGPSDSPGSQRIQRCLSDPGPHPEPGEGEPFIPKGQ

For the compound `Cc1nc2c(cc1C(=O)N=C(N)N)CCCC2O` (stereo not drawn) [Compound A, 8-Hydroxy-2-methyl-5,6,7,8-tetrahydrocyclohexa[b]pyridine-3-carbonylguanidine], the IC50 in data set [1] was in the range of 100 to 990 nM. On the same count and under the same terms, for `Cc1nc2c(cc1C(=O)N=C(N)N)CC(C)CC2` (stereo not drawn) [Compound B, 2,6-Dimethyl-5,6,7,8-tetrahydrocyclohexa[b]pyridine-3-carbonylguanidine] the value was not above 99 nM; for `CCc1nc2c(cc1C(=O)N=C(N)N)CCCCC2` [Compound C, 2-Ethyl-6,7,8,9-tetrahydro-5H-cyclohepta[b]pyridine-3-carbonylguanidine], not above 99 nM; for `Cc1nc2c(cc1C(=O)N=C(N)N)C(O)CCCC2` (stereo not drawn) [Compound D, 5-Hydroxy-2-methyl-6,7,8,9-tetrahydro-5H-cyclohepta[b]pyridine-3-carbonylguanidine], 100 to 990 nM. The same measure, in the same setting: next, `Cc1nc2c(cc1C(=O)N=C(N)N)CCCCC2C` (stereo not drawn) [Compound E, 2,9-Dimethyl-6,7,8,9-tetrahydro-5H-cyclohepta[b]pyridine-3-carbonylguanidine]: not above 99 nM. As for `COC1CCCCc2cc(C(=O)N=C(N)N)c(C)nc21` (stereo not drawn) [Compound F, 9-Methoxy-2-methyl-6,7,8,9-tetrahydro-5H-cyclohepta[b]pyridine-3-carbonylguanidine], in data set [1], the IC50 is not above 99 nM. For the compound `NC(N)=NC(=O)c1cc2c(nc1C(F)(F)F)CCCCC2` [Compound G, 2-Trifluoromethyl-6,7,8,9-tetrahydro-5H-cyclohepta[b]pyridine-3-carbonylguanidine], in data set [1], the IC50 is 100 to 990 nM. Take `NC(N)=NC(=O)c1cc2c(nc1Cl)CCCCC2` [Compound H, 2-Chloro-6,7,8,9-tetrahydro-5H-cyclohepta[b]pyridine-3-carbonylguanidine]: in data set [1], the IC50 was not above 99 nM. For the compound `COc1nc2c(cc1C(=O)N=C(N)N)CCCCC2` [Compound I, 2-Methoxy-6,7,8,9-tetrahydro-5H-cyclohepta[b]pyridine-3-carbonylguanidine], the IC50 in data set [1] is not below 1000 nM. Still for that read-out and setting: next, `NC(N)=NC(=O)c1cc2c(nc1-c1cccnc1)CCCCC2` [Compound J, 2-(3-Pyridyl)-6,7,8,9-tetrahydro-5H-cyclohepta[b]pyridine-3-carbonylguanidine]: not below 1000 nM.

`Cc1nc2c(cc1C(=O)N=C(N)N)CCCC=C2` [Compound K, 2-Methyl-6,7-dihydro-5H-cyclohepta[b]pyridine-3-carbonylguanidine]: in data set [1], the IC50 was not above 99 nM. As to `N=C(N)NC(=O)c1nc(Cl)c(N)nc1N` [amiloride], in data set [2], the accompanying actions entry was “accompanies hypotensive action and salt excretion action”; the anti-arrhythmic action entry is recorded as “weak”. In data set [3], the “Na^+ /H^+ exchange transport inhibitory action” value is “has a Na^+ /H^+ exchange transport inhibitory action”.

Turning to `Cc1nc2c(cc1C(=O)N=C(N)N)CCCC=C2` [maleic acid salt of the compound (K), 2-Methyl-6,7-dihydro-5H-cyclohepta[b]pyridine-3-carbonylguanidine maleate], in data set [4], the death cases entry is listed as “no death cases were found” and the “toxic changes attributable to the compound (K)” value was “no toxic changes attributable to the compound (K) were observed”. Further, in data set [5], the death cases result was “no death cases were found” and the “toxic changes attributable to the compound (K)” value is “no toxic changes attributable to the compound (K) were observed”.

Values taken from patent US6258829A, “Cycloalka[b]pyridine-3-carbonylguanidine derivatives, process for producing the same, and drugs containing the same” (priority 1997, dated 2001).
